In PubChem BioAssay (NCI):
“And” between values parts separate entries of the source, which are not always exact repeats. Identical values can stand only once.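 Assay format: 96-well plates, 48-hour exposure. Abbreviation: GI50, concentration required for 50% inhibition of growth. TGI: total growth inhibition.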 Where a SMILES comes first, the peptide text is derived from it. Bridges are numbered along the chain shown (N, C = ends).

Assays:
Assay in all cases: inhibition of tumour cell growth, NCI panel, 48 h
[1] = test system: NCI/ADR-RES ovarian
[2] = test system: SNB-75 CNS
[3] = test system: UACC-62 melanoma
[4] = test system: MCF7 breast
[5] = test system: NCI-H460 lung
[6] = test system: KM12 colon
[7] = test system: CAKI-1 renal
[8] = test system: MDA-MB-435
[9] = test system: OVCAR-4 ovarian
[10] = test system: ACHN renal

| SMILES | GI50 [1] | GI50 [2] [µM] | TGI [2] | GI50 [3] | TGI [3] | GI50 [4] [µM] | TGI [4] | GI50 [5] [µM] | TGI [5] | GI50 [6] [µM] | GI50 [7] | TGI [8] [µM] | GI50 [9] | TGI [10] [µM] | TGI [1] | TGI [6] | TGI [7] | TGI [9] | GI50 [8] [µM] | GI50 [10] [µM] |
| --- | --- | --- | --- | --- | --- | --- | --- | --- | --- | --- | --- | --- | --- | --- | --- | --- | --- | --- | --- | --- |
| CC(C)=CC(=O)OC1C2C(C)=CC(=O)C(O)C2(C)C2C3(O)OCC24C(CC(=O)OC14)C(C)C3O (stereo unspecified) | 6.65 µM and 2.24 µM | 0.0338 | 0.0621 µM and 0.0711 µM and 0.062 µM | 0.0204 µM | 0.0313 µM and 0.0404 µM | 0.00159 | 0.00664 µM | 0.00788 | 0.0298 µM and 0.0334 µM | 0.0209 | 0.245 µM and 1.13 µM and 0.293 µM | 0.0103 | 0.02 µM | 0.443 |  |  |  |  |  |  |
| Cc1oc(N)c(S(=O)(=O)/C(C#N)=C/c2ccccc2[N+](=O)[O-])c1C |  |  | > 100 µM |  | 46.9 µM |  | > 100 µM |  | > 100 µM |  |  | > 100 |  | > 100 | > 100 µM | 73.2 µM | 53.9 µM | > 100 µM |  |  |
| O=S1(=O)N=C(SCc2c[nH]c3ccccc23)N(c2ccccc2)c2ccncc21 |  |  | 87.7 µM |  | > 100 µM |  | > 100 µM |  | > 100 µM |  |  | > 100 |  | > 100 | > 100 µM | > 100 µM | > 100 µM | > 100 µM |  |  |
| Cc1cccc(NC(=S)Nc2cccc(Cl)c2)n1 |  |  | > 100 µM |  | > 100 µM |  | > 100 µM |  | > 100 µM |  |  | > 100 |  | > 100 | > 100 µM | > 100 µM | > 100 µM | > 100 µM |  |  |
| CCOP(=O)(OCC)C(c1ccccc1)N(C(=O)NC(F)(F)F)c1ccc(C)cc1 (stereo unspecified) |  |  | > 100 µM |  | > 100 µM |  | > 100 µM |  | > 100 µM |  |  | > 100 |  | > 100 | > 100 µM | > 100 µM | > 100 µM | > 100 µM |  |  |
| COc1ccc(-c2csc3c2[N+]2(C)C=CC=C2C3N2CCCC2)cc1 (stereo unspecified) |  |  | 36.8 µM |  | 38.2 µM |  | > 100 µM |  | 46.8 µM |  |  | 59.5 |  | > 100 | 63.7 µM | 34.9 µM | > 100 µM | > 100 µM |  |  |
| Cc1cc2ccccc2n2c1nc1ccc(O)cc12 |  |  | > 10 µM |  | > 10 µM |  | > 10 µM |  | > 10 µM |  |  | > 10 |  | > 10 | > 10 µM | > 10 µM | > 10 µM | > 10 µM |  |  |
| COC1(C)CCC(OS(C)(=O)=O)CO1 (stereo unspecified) |  |  | > 100 µM |  | > 100 µM |  | > 100 µM |  | > 100 µM |  |  | > 100 |  | > 100 | > 100 µM | > 100 µM | > 100 µM | > 100 µM |  |  |
| CC(=O)c1c(-c2ccco2)c(C#N)c(=S)n(C2OC(CO)C(O)C(O)C2O)c1C (stereo unspecified) |  |  | > 100 µM |  | > 100 µM |  | > 100 µM |  | > 100 µM |  |  | > 100 |  | > 100 | > 100 µM | > 100 µM | > 100 µM | > 100 µM |  |  |
| O=C(NCc1cn(Cc2cccc(Oc3ccccc3)c2)nn1)c1cccnc1NCc1ccc(Cl)cc1 | 2.86 µM | 2.02 | 7.77 µM | 2.08 µM | 6.92 µM | 2.99 | > 100 µM | 2.85 | 7.83 µM | 3.62 | 4.36 µM | 7.37 | 3.37 µM | > 100 | > 100 µM | > 100 µM | > 100 µM | > 100 µM | 2.33 | 4.03 |
| CC(Cl)(CCC(Cl)C(C)(C)Cl)C(=O)CBr (stereo unspecified) |  |  | 26.5 µM |  | 22.7 µM |  | 28.5 µM |  | 32.3 µM |  |  | 30.6 |  | 20.9 | 74.2 µM | 29.6 µM | 27.8 µM | 7.46 µM |  |  |
| Cc1c(C(=O)O)sc2nc[nH]c(=O)c12 |  |  | > 100 µM |  | > 100 µM |  | > 100 µM |  | > 100 µM |  |  | > 100 |  | > 100 | > 100 µM | > 100 µM | > 100 µM | > 100 µM |  |  |
| C/C(CC(O)(C(F)(F)F)C(F)(F)F)=N\O |  |  | > 10 µM |  | > 10 µM |  | > 10 µM |  | > 10 µM |  |  | > 10 |  | > 10 | > 10 µM | > 10 µM | > 10 µM | > 10 µM |  |  |
| CC12CC(c3ccccc3O1)C(C(=O)Nc1nccs1)C(=O)N2 (stereo unspecified) |  |  | > 100 µM |  | > 100 µM |  | > 100 µM |  | > 100 µM |  |  | > 100 |  | > 100 | > 100 µM | > 100 µM | > 100 µM | > 100 µM |  |  |
| COC(=O)C1CCC(=O)NCCCCC(NC(=O)C(N)CC(=O)O)C(=O)N1 (stereo not drawn) (H-Asp-Lys-Glu-OMe; lactam 2-3; configuration not given here) |  |  | > 100 µM |  | > 100 µM |  | > 100 µM |  | > 100 µM |  |  | > 100 |  | > 100 | > 100 µM | > 100 µM | > 100 µM | > 100 µM |  |  |
| CC1=NN(c2ccccc2)C(=O)/C1=C\c1c(C)[nH]n(-c2ccccc2)c1=O |  |  | > 100 µM |  | > 100 µM |  | > 100 µM |  | > 100 µM |  |  | > 100 |  | > 100 | > 100 µM | > 100 µM | > 100 µM | > 100 µM |  |  |
| CCOC(=O)c1c(SC(=O)c2ccc(Cl)cc2)n(-c2ccccc2)c(=S)n(-c2ccccc2)c1=O |  |  | > 100 µM |  | > 100 µM |  | > 100 µM |  | > 100 µM |  |  | > 100 |  | > 100 | > 100 µM | > 100 µM | > 100 µM | > 100 µM |  |  |
| COc1ccc(NCn2nc(CCCCCCCCc3nn(CNc4ccc(OC)cc4)c(=S)o3)oc2=S)cc1 |  |  | > 100 µM |  | > 100 µM |  | > 100 µM |  | > 100 µM |  |  | > 100 |  | > 100 | > 100 µM | > 100 µM | > 100 µM | > 100 µM |  |  |
| COc1ccc(C2C3=C(COC3=O)Oc3cc4c(cc32)OCO4)cc1OC (stereo unspecified) |  |  | > 100 µM |  | > 100 µM |  | > 100 µM |  | > 100 µM |  |  | 0.751 |  | > 100 | 7.7 µM | > 71.7 µM | > 100 µM | > 100 µM |  |  |
| CNCC(SC)c1ccc(O)c(O)c1 (stereo unspecified) |  |  | > 100 µM |  | > 100 µM |  | 87.4 µM |  | 33.2 µM |  |  | > 100 |  | 33.4 | > 100 µM | > 100 µM | 38 µM | 32.5 µM |  |  |
| O=C(Oc1cncc(Cl)c1)c1cc2ccccc2sc1=O |  |  | > 100 µM |  | > 100 µM |  | > 100 µM |  | > 100 µM |  |  | > 100 |  | > 100 | > 100 µM | > 100 µM | > 100 µM | > 100 µM |  |  |
| O=C(O)c1c(CC(Cc2ccccc2)C(=O)O)ccc2c1CCC2 (stereo unspecified) |  |  | > 100 µM |  | > 100 µM |  | > 100 µM |  | > 100 µM |  |  | > 100 |  | > 100 | > 100 µM | > 100 µM | > 100 µM | > 100 µM |  |  |
| C#CC(O)/C=C/C(O)CCCC(O)CC#CC(O)C#CCCCCC(O)/C=C/CCCC(=O)CCCCCCCCCCCCCCCC(O)C(O)C#CC(=O)O (stereo unspecified) |  |  | > 25 µM |  | > 25 µM |  | > 25 µM |  | > 25 µM |  |  | > 25 |  | > 25 | > 25 µM | > 25 µM | > 25 µM | > 25 µM |  |  |
| CCN(CC)CC[n+]1ccc2c(C)c3[nH]c4ccccc4c3c(C)c2c1 | 27.2 µM and 43.6 µM and 87.6 µM | 0.148 | 1.14 µM and 0.847 µM and 1.23 µM | 0.491 µM and 0.827 µM and 1.27 µM | 1.65 µM and 2.56 µM and 3.75 µM | 0.323 | 7.36 µM and 5.5 µM and 2.47 µM | 0.332 | 2.31 µM and 2.16 µM and 1.01 µM |  | 8.97 µM | 2.14 | 0.192 µM and 0.799 µM and 0.0865 µM | 32.8 | 48.1 µM and 125 µM | 2.39 µM and 1.45 µM and 2.76 µM | 10.3 µM and > 38.3 µM and 7.08 µM | 1.2 µM and 4.27 µM and 0.483 µM |  |  |
| COc1ccc(-c2c(/C=N/OCC(=O)O)c3sc4ccccc4n3c2/C=N/OCC(=O)O)cc1 |  |  | > 50 µM |  | > 50 µM |  | > 50 µM |  | > 50 µM |  |  | > 50 |  | > 50 | > 50 µM | > 50 µM | > 50 µM | > 50 µM |  |  |
| Nc1ccnc2c1ncn2[C@H]1C[C@H](O)[C@@H](CO)O1 |  |  | > 100 µM |  | > 100 µM |  | > 100 µM |  | > 100 µM |  |  | > 100 |  | > 100 | > 100 µM | > 100 µM | > 100 µM | > 100 µM |  |  |
| COC(=O)CCCc1nc2ccccc2nc1N=Nc1ccccc1 |  |  | > 100 µM |  | > 100 µM |  | > 100 µM |  | > 100 µM |  |  | > 100 |  | > 100 | 57.1 µM | > 100 µM | > 100 µM | > 100 µM |  |  |
| O=C(CCC(NC(=O)OCc1ccccc1)C(=O)OCc1ccccc1)Nc1cccc(OCc2ccccc2)c1 (stereo unspecified) |  |  | > 100 µM |  | > 100 µM |  | 41.3 µM |  | 53.3 µM |  |  | 43.1 |  | > 100 | > 100 µM | > 100 µM | > 100 µM | > 100 µM |  |  |
| CC(C)(C)c1cc(C(C)(C)C)c(SC2OC(CO)C(O)C(O)C2O)c(O)c1O (stereo unspecified) |  |  | 6.05 µM |  | 4.99 µM |  | > 34.2 µM |  | 10.5 µM |  |  | 21 |  | 22.8 | 34.3 µM | 20.8 µM | > 84.9 µM | > 61.9 µM |  |  |
| Oc1c(NCn2nc(CCCCCCCCc3nn(CNc4ccc5ccccc5c4O)c(=S)o3)oc2=S)ccc2ccccc12 |  |  | > 100 µM |  | > 100 µM |  | > 100 µM |  | > 100 µM |  |  | 43.2 |  | > 100 | > 100 µM | > 100 µM | > 100 µM | > 100 µM |  |  |
